Experimental data from patent US20240384350A1, “METHODS OF TREATING CANCER WITH KINASE INHIBITORS” (BOARD OF REGENTS, THE UNIVERSITY OF TEXAS SYSTEM, priority 2021, published 2024).

What was measured:
Test in all cases: Ba/F3 drug screening, Cell Titer Glo, IC50 Mut/WT
Type in all cases: cell-based
EGFR L718Q T790M = biological target: T1, EGFR L718Q T790M (Homo sapiens, UniProt P00533, L718Q/T790M); details: T790M-like-3R, 72 hours
T1 construct: expressed in transfected cells; host or cells: Ba/F3

EGFR E709K G719S = biological target: T2, EGFR E709K G719S (Homo sapiens, UniProt P00533, E709K/G719S); details: PACC; E709K G719S; Ba/F3; 72 hours
T2 construct: expressed in transfected cells; host or cells: Ba/F3

EGFR G719A L861Q = biological target: T3, EGFR G719A L861Q (Homo sapiens, UniProt P00533, G719A/L861Q); details: PACC; G719A L861Q; Ba/F3; 72 hours
T3 construct: expressed in transfected cells; host or cells: Ba/F3
Experimental: (§1) Data represent the ratio of the IC50 value for a given TKI for cells with a PACC EGFR mutation to the IC50 value for cells with wildtype EGFR.
(§2) Ba/F3 cell generation, drug screening, and IC50 approximations. Ba/F3 cells were obtained as a gift from Dr. Gordon Mills (MD Anderson Cancer Center), and maintained in RPMI (Sigma) containing 10% FBS, 1% penicillin/streptomycin, and 10 ng/ml recombinant mIL-3 (R&D Biosystems). To establish stable Ba/F3 cell lines, Ba/F3 cells were transduced with retroviruses containing mutant EGFR plasmids for 12-24 hours.
(§3) After 48-72 hours of transduction, 2 μg/ml puromycin (Invitrogen) was added to Ba/F3 cell lines in complete RPMI. To select for EGFR positive cell lines, cells were stained with PE-EGFR (Biolegend) and sorted by FACS. After sorting, EGFR positive cells were maintained in RPMI containing 10% FBS, 1% penicillin/streptomycin, and 1 ng/ml EGF to support cell viability. Drug screening was performed as previously described^41,42. Shortly, cells were plated in 384-well plates (Greiner Bio-One) at 2000-3000 cells per well in technical triplicate. Seven different concentrations of TKIs or DMSO vehicle were added to reach a final volume of 40 μL per well. After 72 hours, 11 μL of Cell Titer Glo (Promega) was added to each well. Plates were incubated for a minimum of 10 minutes, and bioluminescence was determined using a FLUOstar OPTIMA plate reader (BMG LABTECH). Raw bioluminescence values were normalized to DMSO control treated cells, and values were plotted in GraphPad Prism. […] Drug screens were performed in technical triplicate on each plate and either duplicate or triplicate biological replicates.

EGFR S784F = biological target: T4, EGFR S784F (Homo sapiens, UniProt P00533, S784F); details: Classical-Like, 72 hours
T4 construct: expressed in transfected cells; host or cells: Ba/F3 cells, retroviral pBabe-Puro vector (vector made by GeneScript from EGFR WT)
Experimental: (§4) Data represent the ratio of the IC50 value for a given TKI for cells with a classical-like EGFR mutation to the IC50 value for cells with wildtype EGFR.
as §2
(§5) After 48-72 hours of transduction, 2 μg/ml puromycin (Invitrogen) was added to Ba/F3 cell lines in complete RPMI. To select for EGFR positive cell lines, cells were stained with PE-EGFR (Biolegend) and sorted by FACS. After sorting, EGFR positive cells were maintained in RPMI containing 10% FBS, 1% penicillin/streptomycin, and 1 ng/ml EGF to support cell viability. […] Shortly, cells were plated in 384-well plates (Greiner Bio-One) at 2000-3000 cells per well in technical triplicate. Seven different concentrations of TKIs or DMSO vehicle were added to reach a final volume of 40 μL per well. After 72 hours, 11 μL of Cell Titer Glo (Promega) was added to each well. Plates were incubated for a minimum of 10 minutes, and bioluminescence was determined using a FLUOstar OPTIMA plate reader (BMG LABTECH). Raw bioluminescence values were normalized to DMSO control treated cells, and values were plotted in GraphPad Prism. […] Drug screens were performed in technical triplicate on each plate and either duplicate or triplicate biological replicates.

EGFR L747S = biological target: T5, EGFR L747S (Homo sapiens, UniProt P00533, L747S); details: PACC; L747S; Ba/F3; 72 hours
T5 construct: expressed in transfected cells; host or cells: Ba/F3

EGFR V769L = biological target: T6, EGFR V769L (Homo sapiens, UniProt P00533, V769L); details: PACC; V769L; Ba/F3; 72 hours
T6 construct: expressed in transfected cells; host or cells: Ba/F3

EGFR Ex19del L718V = biological target: T7, EGFR Ex19del L718V (Homo sapiens, UniProt P00533, DEL746-750/L718V); details: PACC; Ex19del L718V; Ba/F3; 72 hours
T7 construct: expressed in transfected cells; host or cells: Ba/F3
Experimental: as §1, §2, §3

EGFR L861Q = biological target: T8, EGFR L861Q (Homo sapiens, UniProt P00533, L861Q); details: Classical-Like, 72 hours
T8 construct: expressed in transfected cells; host or cells: Ba/F3 cells, retroviral pBabe-Puro vector

EGFR G719A T790M = biological target: T9, EGFR G719A T790M (Homo sapiens, UniProt P00533, G719A/T790M); details: T790M-like-3S, 72 hours
T9 construct: expressed in transfected cells; host or cells: Ba/F3

EGFR A763insLQEA = biological target: T10, EGFR A763insLQEA (Homo sapiens, UniProt P00533, INS763LQEA); details: Classical-Like, 72 hours
T10 construct: expressed in transfected cells; host or cells: Ba/F3 cells, retroviral pBabe-Puro vector

EGFR V774M = biological target: T11, EGFR V774M (Homo sapiens, UniProt P00533, V774M); details: PACC; V774M; Ba/F3; 72 hours
T11 construct: host or cells: Ba/F3

EGFR L858R/T790M/C797S = biological target: T12, EGFR L858R/T790M/C797S (Homo sapiens, UniProt P00533, C797S/L858R/T790M); details: T790M-like-3R, 72 hours
T12 construct: expressed in transfected cells; host or cells: Ba/F3
Experimental: Data represent the ratio of the IC50 value for a given TKI for cells with a T790M-like-3R EGFR mutation to the IC50 value for cells with wildtype EGFR.
as §2
After 48-72 hours of transduction, 2 μg/ml puromycin (Invitrogen) was added to Ba/F3 cell lines in complete RPMI. To select for EGFR positive cell lines, cells were stained with PE-EGFR (Biolegend) and sorted by FACS. After sorting, EGFR positive cells were maintained in RPMI containing 10% FBS, 1% penicillin/streptomycin, and 1 ng/ml EGF to support cell viability. […] Shortly, cells were plated in 384-well plates (Greiner Bio-One) at 2000-3000 cells per well in technical triplicate. Seven different concentrations of TKIs or DMSO vehicle were added to reach a final volume of 40 μL per well. After 72 hours, 11 μL of Cell Titer Glo (Promega) was added to each well. Plates were incubated for a minimum of 10 minutes, and bioluminescence was determined using a FLUOstar OPTIMA plate reader (BMG LABTECH). Raw bioluminescence values were normalized to DMSO control treated cells, and values were plotted in GraphPad Prism. […] Drug screens were performed in technical triplicate on each plate and either duplicate or triplicate biological replicates. […] Statistical differences between groups were determined by ANOVA as described in the figure legends.

EGFR L858R L718Q = biological target: T13, EGFR L858R L718Q (Homo sapiens, UniProt P00533, L718Q/L858R); details: PACC; L858R L718Q; Ba/F3; 72 hours
T13 construct: host or cells: Ba/F3

EGFR L858R T790M L792H = biological target: T14, EGFR L858R T790M L792H (Homo sapiens, UniProt P00533, L792H/L858R/T790M); details: T790M-like-3S, 72 hours
T14 construct: expressed in transfected cells; host or cells: Ba/F3

EGFR Ex19del G724S = biological target: T15, EGFR Ex19del G724S (Homo sapiens, UniProt P00533, DEL746-750/G724S); details: PACC; Ex19del G724S; Ba/F3; 72 hours
T15 construct: expressed in transfected cells; host or cells: Ba/F3

EGFR A763insFQEA = biological target: T16, EGFR A763insFQEA (Homo sapiens, UniProt P00533, INS763FQEA); details: Classical-Like, 72 hours
T16 construct: expressed in transfected cells; host or cells: Ba/F3 cells, retroviral pBabe-Puro vector

EGFR S768I/V769L = biological target: T17, EGFR S768I/V769L (Homo sapiens, UniProt P00533, S768I/V769L); details: PACC; S768I/V769L; Ba/F3; 72 hours
T17 construct: host or cells: Ba/F3

EGFR L718Q = biological target: T18, EGFR L718Q (Homo sapiens, UniProt P00533, L718Q); details: PACC; L718Q; Ba/F3; 72 hours
T18 construct: expressed in transfected cells; host or cells: Ba/F3

EGFR L858R T790M V843I = biological target: T19, EGFR L858R T790M V843I (Homo sapiens, UniProt P00533, L858R/T790M/V843I); details: T790M-like-3S, 72 hours
T19 construct: expressed in transfected cells; host or cells: Ba/F3

EGFR L718V = biological target: T20, EGFR L718V (Homo sapiens, UniProt P00533, L718V); details: PACC; L718V; Ba/F3; 72 hours
T20 construct: expressed in transfected cells; host or cells: Ba/F3

EGFR A767insASV = biological target: T21, EGFR A767insASV (Homo sapiens, UniProt P00533, DUP767-769); details: Ex20, 72 hours
T21 construct: expressed in transfected cells; host or cells: Ba/F3 cells, retroviral pBabe-Puro vector

EGFR Ex19del L718Q = biological target: T22, EGFR Ex19del L718Q (Homo sapiens, UniProt P00533, DEL746-750/L718Q); details: PACC; Ex19del L718Q; Ba/F3; 72 hours
T22 construct: expressed in transfected cells; host or cells: Ba/F3

EGFR S768dupSVD = biological target: T23, EGFR S768dupSVD (Homo sapiens, UniProt P00533, DUP768-770); details: Ex20, 72 hours
T23 construct: expressed in transfected cells; host or cells: Ba/F3 cells, retroviral pBabe-Puro vector
Experimental: Data represent the ratio of the IC50 value for a given TKI for cells with an ex20ins EGFR mutation to the IC50 value for cells with wildtype EGFR.
as §2
After 48-72 hours of transduction, 2 μg/ml puromycin (Invitrogen) was added to Ba/F3 cell lines in complete RPMI. To select for EGFR positive cell lines, cells were stained with PE-EGFR (Biolegend) and sorted by FACS. After sorting, EGFR positive cells were maintained in RPMI containing 10% FBS, 1% penicillin/streptomycin, and 1 ng/ml EGF to support cell viability. Drug screening was performed as previously described^41,42. Shortly, cells were plated in 384-well plates (Greiner Bio-One) at 2000-3000 cells per well in technical triplicate. Seven different concentrations of TKIs or DMSO vehicle were added to reach a final volume of 40 μL per well. After 72 hours, 11 μL of Cell Titer Glo (Promega) was added to each well. Plates were incubated for a minimum of 10 minutes, and bioluminescence was determined using a FLUOstar OPTIMA plate reader (BMG LABTECH). Raw bioluminescence values were normalized to DMSO control treated cells, and values were plotted in GraphPad Prism. […] Drug screens were performed in technical triplicate on each plate and either duplicate or triplicate biological replicates. […] Statistical differences between groups were determined by ANOVA as described in the figure legends.

EGFR S811F = biological target: T24, EGFR S811F (Homo sapiens, UniProt P00533, S811F); details: Classical-Like, 72 hours
T24 construct: expressed in transfected cells; host or cells: Ba/F3 cells, retroviral pBabe-Puro vector (vector made by GeneScript from EGFR WT)
Experimental: as §4, §2, §5

EGFR S768I/T790M = biological target: T25, EGFR S768I/T790M (Homo sapiens, UniProt P00533, S768I/T790M); details: T790M-like-3S, 72 hours
T25 construct: expressed in transfected cells; host or cells: Ba/F3
Experimental: Data represent the ratio of the IC50 value for a given TKI for cells with a T790M-like-3S EGFR mutation to the IC50 value for cells with wildtype EGFR.
as §2, §3

EGFR E709A = biological target: T26, EGFR E709A (Homo sapiens, UniProt P00533, E709A); details: PACC; E709A; Ba/F3; 72 hours
T26 construct: expressed in transfected cells; host or cells: Ba/F3
Experimental: as §1, §2, §3

EGFR L747P = biological target: T27, EGFR L747P (Homo sapiens, UniProt P00533, L747P); details: PACC; L747P; Ba/F3; 72 hours
T27 construct: expressed in transfected cells; host or cells: Ba/F3

ratio of IC50 for cells with mutant EGFR to IC50 for cells with wildtype EGFR (Mut/WT) (EGFR L718Q T790M): 16.46 | ratio of IC50 for cells with mutant EGFR to IC50 for cells with wildtype EGFR (Mut/WT) (EGFR E709K G719S): 0.06517 | ratio of IC50 for cells with mutant EGFR to IC50 for cells with wildtype EGFR (Mut/WT) (EGFR G719A L861Q): 0.4976 | ratio of IC50 for cells with mutant EGFR to IC50 for cells with wildtype EGFR (Mut/WT) (EGFR S784F): 0.01816 | ratio of IC50 for cells with mutant EGFR to IC50 for cells with wildtype EGFR (Mut/WT) (EGFR L747S): 0.1733 | ratio of IC50 for cells with mutant EGFR to IC50 for cells with wildtype EGFR (Mut/WT) (EGFR V769L): 0.3024 | ratio of IC50 for cells with mutant EGFR to IC50 for cells with wildtype EGFR (Mut/WT) (EGFR Ex19del L718V): 0.1214 | ratio of IC50 for cells with mutant EGFR to IC50 for cells with wildtype EGFR (Mut/WT) (EGFR L861Q): 0.05346 | ratio of IC50 for cells with mutant EGFR to IC50 for cells with wildtype EGFR (Mut/WT) (EGFR G719A T790M): 0.6778 | ratio of IC50 for cells with mutant EGFR to IC50 for cells with wildtype EGFR (Mut/WT) (EGFR A763insLQEA): 0.0269 | ratio of IC50 for cells with mutant EGFR to IC50 for cells with wildtype EGFR (Mut/WT) (EGFR V774M): 0.2507 | ratio of IC50 for cells with mutant EGFR to IC50 for cells with wildtype EGFR (Mut/WT) (EGFR L858R/T790M/C797S): 20.7 | ratio of IC50 for cells with mutant EGFR to IC50 for cells with wildtype EGFR (Mut/WT) (EGFR L858R L718Q): 0.3655 | ratio of IC50 for cells with mutant EGFR to IC50 for cells with wildtype EGFR (Mut/WT) (EGFR L858R T790M L792H): 5.198 | ratio of IC50 for cells with mutant EGFR to IC50 for cells with wildtype EGFR (Mut/WT) (EGFR Ex19del G724S): 2.658 | ratio of IC50 for cells with mutant EGFR to IC50 for cells with wildtype EGFR (Mut/WT) (EGFR A763insFQEA): 0.05463 | ratio of IC50 for cells with mutant EGFR to IC50 for cells with wildtype EGFR (Mut/WT) (EGFR S768I/V769L): 0.713 | ratio of IC50 for cells with mutant EGFR to IC50 for cells with wildtype EGFR (Mut/WT) (EGFR L718Q): 0.06989 | ratio of IC50 for cells with mutant EGFR to IC50 for cells with wildtype EGFR (Mut/WT) (EGFR L858R T790M V843I): 70.97 | ratio of IC50 for cells with mutant EGFR to IC50 for cells with wildtype EGFR (Mut/WT) (EGFR L718V): 1.421 | ratio of IC50 for cells with mutant EGFR to IC50 for cells with wildtype EGFR (Mut/WT) (EGFR A767insASV): 0.9945 | ratio of IC50 for cells with mutant EGFR to IC50 for cells with wildtype EGFR (Mut/WT) (EGFR Ex19del L718Q): 0.09651 | ratio of IC50 for cells with mutant EGFR to IC50 for cells with wildtype EGFR (Mut/WT) (EGFR S768dupSVD): 0.3065 | ratio of IC50 for cells with mutant EGFR to IC50 for cells with wildtype EGFR (Mut/WT) (EGFR S811F): 0.1118 | ratio of IC50 for cells with mutant EGFR to IC50 for cells with wildtype EGFR (Mut/WT) (EGFR S768I/T790M): 60.19 | ratio of IC50 for cells with mutant EGFR to IC50 for cells with wildtype EGFR (Mut/WT) (EGFR E709A): 0.4803 | ratio of IC50 for cells with mutant EGFR to IC50 for cells with wildtype EGFR (Mut/WT) (EGFR L747P): 2.085
SMILES: CN(C)C/C=C/C(=O)Nc1cc2c(Nc3ccc(Cl)c(Br)c3)ncnc2cn1 [Tarlox-TKI]
